Data: patent US20230008508A1, “COMBINATION THERAPIES FOR THE TREATMENT OF CANCER” (H. LEE MOFFITT CANCER CENTER AND RESEARCH INSTITUTE, INC., priority 2019, published 2023)

Legend:
[1] = test system: cutaneous squamous cell carcinoma (cuSCC) cell lines; test: Glycolysis of cuSCC cell lines; format: cell-based
[2] = test system: p53 deficient lung cancers; test: Tumor regression in p53 deficient tumors; format: in vivo
Description: (§1) Here, is shown that deletion of the AN isoforms of p63 or p73 leads to metabolic reprogramming and regression of p53 deficient tumors (FIG. 1). […] When investigated further it was shown that pramlintide suppresses 4Np63 expression (FIG. 4). […] These findings were validated across the sensitive cell lines Colo16 and RDEB2 and the resistant cell lines SCCIC1 and SRB12 for pramlintide (symlin) administration and regulation by ΔNp63 showing reduced levels for CYR61 and CTGF in the sensitive lines and no effect or increases in resistant lines (FIG. 6). A similar observation was also made with the F-box protein FBXO16. […] Looking at additional cell types, ΔNp63 was expressed in sensitive cells but not resistant cells (FIG. 9). To see if the regulation pattern for CYR61, CTGF, and FBXO16 was maintained in HNSCC cell lines, the expression level for each was measured in SQ20B and FaDu cells with and without the application of pramlintide (symlin) (FIG. 10). As for the Sensitive cuSCC lines, the sensitive HNSCC lines upregulate FBXO16 and downregulate CYR61 and CTGF in response to both pramlintide showing that pramlintide mediated degradation of ΔNp63 affects target gene expression. Thus, target genes cay be used as a biomarker of responsiveness to pramlintide. We next investigated the effect of pramlintide (symlin) on ΔNp63 expression levels in SQ20B (FIG. 11) and FaDu (FIG. 12) cell lines.

[3] = test system: p53 deficient thymic lymphomas; test: Tumor regression in p53 deficient tumors; format: in vivo
Description: as §1

[4] = test system: ΔNp63; test: ΔNp63 expression / protein levels (western blots); format: cell-based; conditions: for ΔNp63 protein expression: western blot
Description: as §1
(§2) In fact, it was observed that both pramlintide and HDACi treatment reduces ΔNp63 in H1975 lung adenocarcinoma (LUAD) cells (FIG. 15). […] To investigate what effects panobinostat has on the glycolytic rate of HCC95 and H1975 cells, glycolysis was measured by ECAR showing in both […] glycolysis was decreased with treatment (FIG. 17).

[5] = test system: CTGF; test: Expression of ΔNp63 target gene CTGF; format: cell-based
Description: (§3) Sensitive lines downregulate CYR61 and CTGF in response to both pramlintide and direct siRNA-mediated knockdown of ΔNp63 showing that pramlintide mediated degradation of ΔNp63 affects target gene expression. Resistant lines upregulate CYR61 and CTGF in response to both pramlintide and direct siRNA-mediate knockdown of ΔNp63.
as §1

[6] = test system: CYR61; test: Expression of ΔNp63 target gene CYR61; format: cell-based
Description: as §3, §1

[7] = test system: spontaneous UV-driven cutaneous squamous cell carcinoma (cuSCC); test: Tumor regression in spontaneous UV-driven cuSCC model; format: in vivo; conditions: FIG. 3
Description: as §1

[8] = test system: SCCIC1; test: Sensitivity of cuSCC cell line to pramlintide (inhibition curve); format: cell-based
Description: (§4) Glycolysis, as measured by Extracellular Acidification Rate (Seahorse), is diminished by pramlintide administration (10 micromolar) in the sensitive SQ20B and FaDu Head and Neck SCC lines. […]
as §1

[9] = test system: SRB12; test: as above; format: cell-based
Description: as §4, §1

[10] = test system: Colo16; test: as above; format: cell-based
Description: as §4, §1

[11] = test system: H1975 lung adenocarcinoma cells; test: Glycolytic rate measured by ECAR; format: cell-based; conditions: FIG. 17
Method: (§5) Glycolysis as measured by ECAR in HCC95 lung SCC and H1975 lung adenocarcinoma cells are decreased by pramlintide.
as §2

[12] = test system: HCC95 lung SCC cells; test: Glycolytic rate measured by ECAR; format: cell-based; conditions: FIG. 17
Method: as §5, §2

[13] = test system: HCC95 cells; test: Cell proliferation and survival (cell cycle arrest, annexin V apoptosis); format: cell-based; conditions: FIG. 16
Method: (§6) Cell cycle arrest and apoptosis are increased by pramlintide and HDACi in HCC95 lung SCC and H1975 lung adenocarcinoma cell lines.
as §2

[14] = test system: H1975 cells; test: as above; format: cell-based; conditions: FIG. 16
Method: as §6, §2

[15] = test system: tumors; conditions: in-vivo; prior published studies; FIG. 20; cited from earlier work
[16] = test system: SRB12 cells; test: Radiation treatment with and without pramlintide; format: cell-based; conditions: pramlintide at the IC40, FIG. 21
Method: During the experiments it was observed that Pramlintide induces ROS in in-vivo in tumors (FIG. 20). To investigate whether because of its effect on ROS pramlintide would have a synergistic effect on radiation sensitivity, SRB12 cells were treated with radiation with and without the presence of pramlintide. […] Accordingly, in one aspect, disclosed herein are methods of increasing the sensitivity of a cancer (such as for example, cutaneous squamous cell carcinoma (cuSCC) or lung cancer or any cancer comprising a p53, p63, or p73 mutation or aberrant expression thereof) in a subject to radiation therapy comprising administering to the subject an agent that inhibits ΔNp63 and/or ΔNp73. In one aspect the agent that inhibits ΔNp63 and/or ΔNp73 comprises an inhibitor of glycolysis (such as, for example, an amylin analog including but not limited to pramlintide).

[17] = test system: FBXO16; test: Expression of ΔNp63 target gene FBXO16; format: cell-based
Description: Sensitive lines upregulate FBXO16 in response to both pramlintide and direct siRNA-mediate knockdown of ΔNp63 showing that pramlintide mediated degradation of ΔNp63 affects target gene expression. Thus target genes may be used as a biomarker of responsiveness to pramlintide. Resistant lines downregulate FBXO16 in response to both pramlintide and direct siRNA-mediate knockdown of ΔNp63 showing that pramlintide mediated degradation of ΔNp63 affects target gene expression.
as §1

[18] = test system: RDEB2; test: Sensitivity of cuSCC cell line to pramlintide (inhibition curve); format: cell-based
[19] = test system: FaDu Head and Neck SCC line; test: Glycolysis measured by Extracellular Acidification Rate (Seahorse); format: cell-based; conditions: 10 micromolar; sensitive FaDu HNSCC line; FIG. 2D
Description: as §4

[20] = test system: SQ20B Head and Neck SCC line; test: as above; format: cell-based; conditions: 10 micromolar; sensitive SQ20B HNSCC line; FIG. 2D
Description: as §4

[21] = resistant cuSCC lines (SCCIC1, SRB12), FIG. 6
[22] = sensitive HNSCC lines (SQ20B, FaDu), FIG. 10
[23] = sensitive cuSCC lines (Colo16, RDEB2), FIG. 6

**Q.** With CC[C@H](C)[C@H](NC(=O)[C@@H]1CCCN1C(=O)CNC(=O)[C@H](Cc1ccccc1)NC(=O)[C@H](CC(N)=O)NC(=O)[C@H](CC(N)=O)NC(=O)[C@H](CO)NC(=O)[C@H](CO)NC(=O)[C@H](Cc1c[nH]cn1)NC(=O)[C@@H](NC(=O)[C@H](CC(C)C)NC(=O)[C@H](Cc1ccccc1)NC(=O)[C@H](CC(N)=O)NC(=O)[C@H](C)NC(=O)[C@H](CC(C)C)NC(=O)[C@H](CCCNC(=N)N)NC(=O)[C@H](CCC(N)=O)NC(=O)[C@@H](NC(=O)[C@H](C)NC(=O)[C@@H]1CSSC[C@H](NC(=O)[C@@H](N)CCCCN)C(=O)N[C@@H](CC(N)=O)C(=O)N[C@@H]([C@@H](C)O)C(=O)N[C@@H](C)C(=O)N[C@@H]([C@@H](C)O)C(=O)N1)[C@@H](C)O)C(C)C)C(=O)N[C@@H](CC(C)C)C(=O)N1CCC[C@H]1C(=O)N1CCC[C@H]1C(=O)N[C@H](C(=O)N[C@@H](CC(N)=O)C(=O)N[C@H](C(=O)NCC(=O)N[C@@H](CO)C(=O)N[C@@H](CC(N)=O)C(=O)N[C@H](C(=O)N[C@@H](Cc1ccc(O)cc1)C(N)=O)[C@@H](C)O)C(C)C)[C@@H](C)O [pramlintide] as the molecule, how does the Glycolysis ([1]; resistant cuSCC lines, FIG. 2A, 2C) read?
**A.** do not exhibit this decrease in glycolysis

**Q.** And the Glycolysis ([1]; sensitive cells, FIGS. 2A-2D)?
**A.** suppresses glycolysis

**Q.** What about the Tumor regression [2] of the same molecule?
**A.** rapid tumor regression

**Q.** What about the Tumor regression [3] of the same molecule?
**A.** rapid tumor regression

**Q.** What about the ΔNp63 expression ([4]; FIG. 4, cell line not stated) of the same molecule?
**A.** suppresses ΔNp63 expression

**Q.** And the “Dependence of ΔNp63 suppression on Fbxw7 expression” value ([4]; FIG. 13)?
**A.** needs to be present

**Q.** And the ΔNp63 protein expression ([4]; FaDu, FIG. 12)?
**A.** decreased protein expression

**Q.** What about the ΔNp63 protein levels ([4]; H1975 LUAD cells, FIG. 15) of the same molecule?
**A.** reduce ΔNp63

**Q.** What about the ΔNp63 protein levels ([4]; LUSC HCC95 cells, FIG. 14) of the same molecule?
**A.** reduces ΔNp63 protein levels

**Q.** What about the ΔNp63 protein expression ([4]; SQ20B, FIG. 11) of the same molecule?
**A.** decreased protein expression

**Q.** What about the CTGF expression [5, 21] of the same molecule?
**A.** upregulate

**Q.** And the CTGF expression [5, 22]?
**A.** downregulate

**Q.** What about the CTGF expression [5, 23] of the same molecule?
**A.** downregulate

**Q.** And the CYR61 expression [6, 21]?
**A.** upregulate

**Q.** And the CYR61 expression [6, 22]?
**A.** downregulate

**Q.** And the CYR61 expression [6, 23]?
**A.** downregulate

**Q.** What about the Tumor regression [7] of the same molecule?
**A.** induces tumor regression

**Q.** What about the Sensitivity to pramlintide [8] of the same molecule?
**A.** resistant

**Q.** What about the Sensitivity to pramlintide [9] of the same molecule?
**A.** resistant

**Q.** And the Sensitivity to pramlintide [10]?
**A.** sensitive

**Q.** What about the “Glycolysis (ECAR)” value [11] of the same molecule?
**A.** decreased

**Q.** What about the “Glycolysis (ECAR)” value [12] of the same molecule?
**A.** decreased

**Q.** And the “Apoptosis (annexin V staining)” value ([13]; HCC95)?
**A.** increased apoptosis

**Q.** And the Proliferation ([13]; HCC95 cells)?
**A.** reduced proliferation

**Q.** And the Cell cycle arrest ([13]; HCC95 lung SCC)?
**A.** increased

**Q.** And the “Apoptosis (annexin V staining)” value ([14]; H1975)?
**A.** increased apoptosis

**Q.** What about the Proliferation ([14]; H1975 cells) of the same molecule?
**A.** reduced proliferation

**Q.** And the Cell cycle arrest ([14]; H1975 lung adenocarcinoma)?
**A.** increased

**Q.** And the ROS in tumors [15]?
**A.** induces ROS

**Q.** What about the “Sensitivity to radiation treatment” value [16] of the same molecule?
**A.** more sensitive to radiation treatment

**Q.** And the FBXO16 expression ([17]; resistant cuSCC lines, FIG. 8)?
**A.** downregulate

**Q.** And the FBXO16 expression [17, 22]?
**A.** upregulate

**Q.** And the FBXO16 expression ([17]; sensitive cuSCC lines, FIG. 8)?
**A.** upregulate

**Q.** What about the Sensitivity to pramlintide [18] of the same molecule?
**A.** sensitive

**Q.** And the “Glycolysis (Extracellular Acidification Rate)” value [19]?
**A.** diminished

**Q.** And the “Glycolysis (Extracellular Acidification Rate)” value [20]?
**A.** diminished
